Data taken from PubChem BioAssay (NCI).
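Dose response: 5 concentrations. Exposure: 48 h. Format: 96-well plates. Endpoint: linear interpolation; highest concentration if not reached. TGI: total growth inhibition.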

These molecules were tested on EKVX NSCLC (assay: growth of human tumour cells (NCI), 48 h).

| SMILES | TGI [µM] |
| --- | --- |
| CC(C)[C@H]1NC(=O)[C@H]2N=C(S[C@H]2C)[C@@H]2CCCN2C(=O)[C@H](Cc2ccccc2)NC(=O)[C@@H]2CSC(=N2)[C@@H](Cc2ccccc2)NC(=O)[C@@H]2CSC1=N2 | > 50 |
| COC(=O)/C=C/[C@@H]1[C@H](C)N1S(=O)(=O)c1ccc(C)cc1 (stereo not given in full) | > 100 |
| COc1cc([C@@H]2c3cc4c(cc3[C@@H](Nc3ccc(Cl)cc3C(=O)c3ccccc3)[C@H]3COC(=O)[C@H]23)OCO4)cc(OC)c1OC | > 100 |
| Cc1cc(O)c(/C=N/C(=S)Nc2ccc(S(N)(=O)=O)cc2)c(=O)o1 | > 100 |
| Cc1nn(C(=O)c2ccncc2)c2c1C(c1ccccc1[N+](=O)[O-])SC(N)=N2 (stereo not given) | > 10 |
| Cn1nnc2c3c(N(CCO)CCO)ccnc3ccc21 | > 100 |
| CC(Oc1ccccc1Cl)C(=O)NN1C(=O)CC(=O)N(c2ccc(Cl)cc2)C1=S (stereo not given) | > 100 |
| Cc1ccc(S(=O)(=O)N2CCSCCSCCSCCN(S(=O)(=O)c3ccc(C)cc3)CC2)cc1 | > 100 |
| CC(Oc1ccc(Cl)cc1Cl)C(=O)NN1C(=O)CC(=O)N(c2ccccc2)C1=S (stereo not given) | > 100 |
| CC(=O)/C(=C\I)c1ccccc1 | 33.3 |
| CCOC(=O)c1c[nH]c(C(=O)C=[N+]=[N-])c1C1CCN(CC)C1=S (stereo not given) | > 100 |
| CC(=O)N1C(Nc2nccs2)CCN1c1ccccc1 (stereo not given) | > 10 |
| O=c1[nH][nH]c(=O)c2c1ccc1oc3ccccc3c12 | > 100 |
| O=C1NC2(CCNCC2)Oc2ccccc21 | > 100 |
| CC(C)OP(=O)(OC(C)C)C(C)(C)O | > 100 |
| COc1cc(C2c3cc4c(cc3C(=O)C3CCC(=O)N32)OCO4)cc(OC)c1O (stereo not given) | > 50 |

What follows are molecules tested on HCT-15 colon (assay: growth of human tumour cells (NCI), 48 h).

| SMILES | TGI [µM] |
| --- | --- |
| CCCCCCCCCCCCCCCCNC(=O)/C(=C\c1ccc(Cl)c(Cl)c1)NC(=O)c1ccccc1 | > 100 |
| O=C(Nc1ccccc1)OCCN=C1c2ccccc2CCc2ccccc21 | 48.2 |
| CC(C)[C@H]1NC(=O)[C@H]2N=C(S[C@H]2C)[C@@H]2CCCN2C(=O)[C@H](Cc2ccccc2)NC(=O)[C@@H]2CSC(=N2)[C@@H](Cc2ccccc2)NC(=O)[C@@H]2CSC1=N2 | > 50 |
| O=C(Cn1c2ccc(Br)cc2c2nc3ccccc3nc21)Nc1ccccc1 | 70.5 |
| COC(=O)/C=C/[C@@H]1[C@H](C)N1S(=O)(=O)c1ccc(C)cc1 (stereo not given in full) | > 100 |
| Cc1cc(O)c(/C=N/C(=S)Nc2ccc(S(N)(=O)=O)cc2)c(=O)o1 | > 100 |
| Cc1nn(C(=O)c2ccncc2)c2c1C(c1ccccc1[N+](=O)[O-])SC(N)=N2 (stereo not given) | > 10 |
| Cn1nnc2c3c(N(CCO)CCO)ccnc3ccc21 | > 100 |
| CC(Oc1ccccc1Cl)C(=O)NN1C(=O)CC(=O)N(c2ccc(Cl)cc2)C1=S (stereo not given) | > 100 |
| CC(Oc1ccc(Cl)cc1Cl)C(=O)NN1C(=O)CC(=O)N(c2ccccc2)C1=S (stereo not given) | > 100 |
| CC(=O)/C(=C\I)c1ccccc1 | 3.35 |
| CCOC(=O)c1c[nH]c(C(=O)C=[N+]=[N-])c1C1CCN(CC)C1=S (stereo not given) | > 100 |
| CC(=O)N1C(Nc2nccs2)CCN1c1ccccc1 (stereo not given) | > 10 |
| O=C1CSC(c2ccccc2O)N1c1ccc(-n2c(-c3ccccc3)nc3ccccc3c2=O)cc1 (stereo not given) | 60.1 |
| O=C1NC2(CCNCC2)Oc2ccccc21 | > 100 |
| CC(C)OP(=O)(OC(C)C)C(C)(C)O | > 100 |
| COc1cc(C2c3cc4c(cc3C(=O)C3CCC(=O)N32)OCO4)cc(OC)c1O (stereo not given) | > 50 |

The molecules below were run on KM12 colon (assay: growth of human tumour cells (NCI), 48 h).

| SMILES | TGI [µM] |
| --- | --- |
| CCCCCCCCCCCCCCCCNC(=O)/C(=C\c1ccc(Cl)c(Cl)c1)NC(=O)c1ccccc1 | > 100 |
| O=C(Nc1ccccc1)OCCN=C1c2ccccc2CCc2ccccc21 | 33.1 |
| CC(C)[C@H]1NC(=O)[C@H]2N=C(S[C@H]2C)[C@@H]2CCCN2C(=O)[C@H](Cc2ccccc2)NC(=O)[C@@H]2CSC(=N2)[C@@H](Cc2ccccc2)NC(=O)[C@@H]2CSC1=N2 | > 50 |
| O=C(Cn1c2ccc(Br)cc2c2nc3ccccc3nc21)Nc1ccccc1 | > 100 |
| Cc1cc(O)c(/C=N/C(=S)Nc2ccc(S(N)(=O)=O)cc2)c(=O)o1 | > 100 |
| Cc1nn(C(=O)c2ccncc2)c2c1C(c1ccccc1[N+](=O)[O-])SC(N)=N2 (stereo not given) | > 10 |
| Cn1nnc2c3c(N(CCO)CCO)ccnc3ccc21 | > 100 |
| CC(Oc1ccccc1Cl)C(=O)NN1C(=O)CC(=O)N(c2ccc(Cl)cc2)C1=S (stereo not given) | > 100 |
| Cc1ccc(S(=O)(=O)N2CCSCCSCCSCCN(S(=O)(=O)c3ccc(C)cc3)CC2)cc1 | > 100 |
| CC(Oc1ccc(Cl)cc1Cl)C(=O)NN1C(=O)CC(=O)N(c2ccccc2)C1=S (stereo not given) | > 100 |
| CC(=O)/C(=C\I)c1ccccc1 | 13.3 |
| CCOC(=O)c1c[nH]c(C(=O)C=[N+]=[N-])c1C1CCN(CC)C1=S (stereo not given) | > 100 |
| O=c1[nH][nH]c(=O)c2c1ccc1oc3ccccc3c12 | > 100 |
| O=C1CSC(c2ccccc2O)N1c1ccc(-n2c(-c3ccccc3)nc3ccccc3c2=O)cc1 (stereo not given) | 97.7 |
| O=C1NC2(CCNCC2)Oc2ccccc21 | > 100 |
| CC(C)OP(=O)(OC(C)C)C(C)(C)O | > 100 |
| COc1cc(C2c3cc4c(cc3C(=O)C3CCC(=O)N32)OCO4)cc(OC)c1O (stereo not given) | > 50 |

These molecules were tested on LOX IMVI melanoma (assay: growth of human tumour cells (NCI), 48 h).

| SMILES | TGI [µM] |
| --- | --- |
| CCCCCCCCCCCCCCCCNC(=O)/C(=C\c1ccc(Cl)c(Cl)c1)NC(=O)c1ccccc1 | 54.2 |
| O=C(Nc1ccccc1)OCCN=C1c2ccccc2CCc2ccccc21 | 49.4 |
| CC(C)[C@H]1NC(=O)[C@H]2N=C(S[C@H]2C)[C@@H]2CCCN2C(=O)[C@H](Cc2ccccc2)NC(=O)[C@@H]2CSC(=N2)[C@@H](Cc2ccccc2)NC(=O)[C@@H]2CSC1=N2 | > 50 |
| O=C(Cn1c2ccc(Br)cc2c2nc3ccccc3nc21)Nc1ccccc1 | 29.2 |
| COC(=O)/C=C/[C@@H]1[C@H](C)N1S(=O)(=O)c1ccc(C)cc1 (stereo not given in full) | > 100 |
| COc1cc([C@@H]2c3cc4c(cc3[C@@H](Nc3ccc(Cl)cc3C(=O)c3ccccc3)[C@H]3COC(=O)[C@H]23)OCO4)cc(OC)c1OC | > 100 |
| Cc1cc(O)c(/C=N/C(=S)Nc2ccc(S(N)(=O)=O)cc2)c(=O)o1 | > 100 |
| Cc1nn(C(=O)c2ccncc2)c2c1C(c1ccccc1[N+](=O)[O-])SC(N)=N2 (stereo not given) | > 10 |
| Cn1nnc2c3c(N(CCO)CCO)ccnc3ccc21 | > 100 |
| CC(Oc1ccccc1Cl)C(=O)NN1C(=O)CC(=O)N(c2ccc(Cl)cc2)C1=S (stereo not given) | > 100 |
| CC(Oc1ccc(Cl)cc1Cl)C(=O)NN1C(=O)CC(=O)N(c2ccccc2)C1=S (stereo not given) | > 100 |
| CC(=O)/C(=C\I)c1ccccc1 | 3.59 |
| CC(=O)N1C(Nc2nccs2)CCN1c1ccccc1 (stereo not given) | > 10 |
| O=C1CSC(c2ccccc2O)N1c1ccc(-n2c(-c3ccccc3)nc3ccccc3c2=O)cc1 (stereo not given) | 69 |
| O=C1NC2(CCNCC2)Oc2ccccc21 | > 100 |
| CC(C)OP(=O)(OC(C)C)C(C)(C)O | > 100 |

The molecules below were run on RXF 393 renal (assay: growth of human tumour cells (NCI), 48 h).

| SMILES | TGI [µM] |
| --- | --- |
| CCCCCCCCCCCCCCCCNC(=O)/C(=C\c1ccc(Cl)c(Cl)c1)NC(=O)c1ccccc1 | 31.8 |
| O=C(Nc1ccccc1)OCCN=C1c2ccccc2CCc2ccccc21 | 50.2 |
| CC(C)[C@H]1NC(=O)[C@H]2N=C(S[C@H]2C)[C@@H]2CCCN2C(=O)[C@H](Cc2ccccc2)NC(=O)[C@@H]2CSC(=N2)[C@@H](Cc2ccccc2)NC(=O)[C@@H]2CSC1=N2 | > 50 |
| O=C(Cn1c2ccc(Br)cc2c2nc3ccccc3nc21)Nc1ccccc1 | 68.7 |
| COC(=O)/C=C/[C@@H]1[C@H](C)N1S(=O)(=O)c1ccc(C)cc1 (stereo not given in full) | > 100 |
| Cc1cc(O)c(/C=N/C(=S)Nc2ccc(S(N)(=O)=O)cc2)c(=O)o1 | > 100 |
| Cc1nn(C(=O)c2ccncc2)c2c1C(c1ccccc1[N+](=O)[O-])SC(N)=N2 (stereo not given) | > 10 |
| Cn1nnc2c3c(N(CCO)CCO)ccnc3ccc21 | > 100 |
| CC(Oc1ccccc1Cl)C(=O)NN1C(=O)CC(=O)N(c2ccc(Cl)cc2)C1=S (stereo not given) | 90.4 |
| Cc1ccc(S(=O)(=O)N2CCSCCSCCSCCN(S(=O)(=O)c3ccc(C)cc3)CC2)cc1 | > 100 |
| CC(Oc1ccc(Cl)cc1Cl)C(=O)NN1C(=O)CC(=O)N(c2ccccc2)C1=S (stereo not given) | > 100 |
| CC(=O)/C(=C\I)c1ccccc1 | 3.36 |
| CCOC(=O)c1c[nH]c(C(=O)C=[N+]=[N-])c1C1CCN(CC)C1=S (stereo not given) | > 100 |
| CC(=O)N1C(Nc2nccs2)CCN1c1ccccc1 (stereo not given) | > 10 |
| O=c1[nH][nH]c(=O)c2c1ccc1oc3ccccc3c12 | > 100 |
| O=C1CSC(c2ccccc2O)N1c1ccc(-n2c(-c3ccccc3)nc3ccccc3c2=O)cc1 (stereo not given) | > 100 |
| O=C1NC2(CCNCC2)Oc2ccccc21 | > 100 |
| CC(C)OP(=O)(OC(C)C)C(C)(C)O | > 100 |
| COc1cc(C2c3cc4c(cc3C(=O)C3CCC(=O)N32)OCO4)cc(OC)c1O (stereo not given) | > 50 |

These molecules were tested on SF-268 CNS (assay: growth of human tumour cells (NCI), 48 h).

| SMILES | TGI [µM] |
| --- | --- |
| CCCCCCCCCCCCCCCCNC(=O)/C(=C\c1ccc(Cl)c(Cl)c1)NC(=O)c1ccccc1 | > 100 |
| O=C(Nc1ccccc1)OCCN=C1c2ccccc2CCc2ccccc21 | 75.4 |
| CC(C)[C@H]1NC(=O)[C@H]2N=C(S[C@H]2C)[C@@H]2CCCN2C(=O)[C@H](Cc2ccccc2)NC(=O)[C@@H]2CSC(=N2)[C@@H](Cc2ccccc2)NC(=O)[C@@H]2CSC1=N2 | > 50 |
| O=C(Cn1c2ccc(Br)cc2c2nc3ccccc3nc21)Nc1ccccc1 | > 100 |
| COC(=O)/C=C/[C@@H]1[C@H](C)N1S(=O)(=O)c1ccc(C)cc1 (stereo not given in full) | > 100 |
